According to patent US20250367126A1, “SOFTGEL CAPSULE COMPRISING A H2 RECEPTOR ANTAGONIST” (KENVUE BRANDS LLC, priority 2024, published 2025):
Read-outs that look alike come from different tables or passages of the source.

Key:
[1] = Experimental: For this evaluation, excipients were added to clear glass vials at ambient temperature. […] The vials were attached to a Burrell Action Wrist Shaker (mechanical shaker) and agitated for approximately 60 hours (hrs) at ambient conditions.
After shaking for approximately 60 hrs, a first portion of the supernatant solution from each vial was submitted for chemical analysis. A second portion of the remaining dispersions was transferred to amber vials and stored at ambient conditions.

[2] = J Pharm Pharmacol 1993, 45:682-686, cited from earlier work
[3] = Acidified PEG 400 Solution with water [PEG 400 (59.7%) + acetic acid (30.0%) + water (10.3%)], 2 Weeks in Amber Vials
[4] = Acidified PEG 400 Solution with water [PEG 400 (59.7%) + acetic acid (30.0%) + water (10.3%)], 2 Weeks in Clear Vials
[5] = Acidified PEG 400 Solution with water [PEG 400 (59.7%) + acetic acid (30.0%) + water (10.3%)], Initial
[6] = Caprylocaproyl Polyoxyl-8 Glycerides NF (Labrasol), 2 Weeks in Amber Vials
[7] = Caprylocaproyl Polyoxyl-8 Glycerides NF (Labrasol), 2 Weeks in Clear Vials
[8] = Caprylocaproyl Polyoxyl-8 Glycerides NF (Labrasol), Initial
[9] = Medium Chain Triglycerides NF (MCT), 2 Weeks in Amber Vials
[10] = Medium Chain Triglycerides NF (MCT), 2 Weeks in Clear Vials
[11] = Medium Chain Triglycerides NF (MCT), Initial
[12] = Mono/Diglycerides of Capric/Caprylic Acid NF (Capmul MCM), 2 Weeks in Amber Vials
[13] = Mono/Diglycerides of Capric/Caprylic Acid NF (Capmul MCM), 2 Weeks in Clear Vials
[14] = Mono/Diglycerides of Capric/Caprylic Acid NF (Capmul MCM), Initial
[15] = Polyethylene Glycol 400, NF (PEG 400), 2 Weeks in Amber Vials
[16] = Polyethylene Glycol 400, NF (PEG 400), 2 Weeks in Clear Vials
[17] = Polyethylene Glycol 400, NF (PEG 400), Initial
[18] = Polyoxyl-35 Castor Oil NF (Kolliphor EL), 2 Weeks in Amber Vials
[19] = Polyoxyl-35 Castor Oil NF (Kolliphor EL), 2 Weeks in Clear Vials
[20] = Polyoxyl-35 Castor Oil NF (Kolliphor EL), Initial
[21] = Polysorbate 80 NF (Tween 80), 2 Weeks in Amber Vials
[22] = Polysorbate 80 NF (Tween 80), 2 Weeks in Clear Vials
[23] = Polysorbate 80 NF (Tween 80), Initial

NC(N)=Nc1nc(CSCCC(N)=NS(N)(=O)=O)cs1 [famotidine]
Equilibrium solubility of famotidine, mg/g Solvent [1, 3]: 137 mg/g | Equilibrium solubility of famotidine, mg/g Total [1, 3]: 121 mg/g | Equilibrium solubility of famotidine, mg/g Solvent [1, 4]: 141 mg/g | Equilibrium solubility of famotidine, mg/g Total [1, 4]: 124 mg/g | Equilibrium solubility of famotidine, mg/g Solvent [1, 5]: 160 mg/g | Equilibrium solubility of famotidine, mg/g Total [1, 5]: 138 mg/g | Equilibrium solubility of famotidine, mg/g Solvent [1, 6]: 58 mg/g | Equilibrium solubility of famotidine, mg/g Total [1, 6]: 55 mg/g | Equilibrium solubility of famotidine, mg/g Solvent [1, 7]: 61 mg/g | Equilibrium solubility of famotidine, mg/g Total [1, 7]: 57 mg/g | Equilibrium solubility of famotidine, mg/g Solvent [1, 8]: 61 mg/g | Equilibrium solubility of famotidine, mg/g Total [1, 8]: 57 mg/g | Equilibrium solubility of famotidine, mg/g Solvent ([1]; Glacial acetic acid, Initial): 318 mg/g | Equilibrium solubility of famotidine, mg/g Total ([1]; Glacial acetic acid, Initial): 241 mg/g | Equilibrium solubility of famotidine, mg/g Solvent [1, 9]: ND (“ND” means not detected, famotidine content was below 0.1 mg/g.) | Equilibrium solubility of famotidine, mg/g Total [1, 9]: ND (“ND” means not detected, famotidine content was below 0.1 mg/g.) | Equilibrium solubility of famotidine, mg/g Solvent [1, 10]: ND (“ND” means not detected, famotidine content was below 0.1 mg/g.) | Equilibrium solubility of famotidine, mg/g Total [1, 10]: ND (“ND” means not detected, famotidine content was below 0.1 mg/g.) | Equilibrium solubility of famotidine, mg/g Solvent [1, 11]: ND (“ND” means not detected, famotidine content was below 0.1 mg/g.) | Equilibrium solubility of famotidine, mg/g Total [1, 11]: ND (“ND” means not detected, famotidine content was below 0.1 mg/g.) | Equilibrium solubility of famotidine, mg/g Solvent [1, 12]: 3 mg/g | Equilibrium solubility of famotidine, mg/g Total [1, 12]: 3 mg/g | Equilibrium solubility of famotidine, mg/g Solvent [1, 13]: 3 mg/g | Equilibrium solubility of famotidine, mg/g Total [1, 13]: 3 mg/g | Equilibrium solubility of famotidine, mg/g Solvent [1, 14]: 3 mg/g | Equilibrium solubility of famotidine, mg/g Total [1, 14]: 3 mg/g | Equilibrium solubility of famotidine, mg/g Solvent [1, 15]: 115 mg/g | Equilibrium solubility of famotidine, mg/g Total [1, 15]: 103 mg/g | Equilibrium solubility of famotidine, mg/g Solvent [1, 16]: 116 mg/g | Equilibrium solubility of famotidine, mg/g Total [1, 16]: 104 mg/g | Equilibrium solubility of famotidine, mg/g Solvent [1, 17]: 118 mg/g | Equilibrium solubility of famotidine, mg/g Total [1, 17]: 106 mg/g | Equilibrium solubility of famotidine, mg/g Solvent [1, 18]: 64 mg/g | Equilibrium solubility of famotidine, mg/g Total [1, 18]: 60 mg/g | Equilibrium solubility of famotidine, mg/g Solvent [1, 19]: 63 mg/g | Equilibrium solubility of famotidine, mg/g Total [1, 19]: 60 mg/g | Equilibrium solubility of famotidine, mg/g Solvent [1, 20]: 64 mg/g | Equilibrium solubility of famotidine, mg/g Total [1, 20]: 60 mg/g | Equilibrium solubility of famotidine, mg/g Solvent [1, 21]: 45 mg/g | Equilibrium solubility of famotidine, mg/g Total [1, 21]: 43 mg/g | Equilibrium solubility of famotidine, mg/g Solvent [1, 22]: 36 mg/g | Equilibrium solubility of famotidine, mg/g Total [1, 22]: 35 mg/g | Equilibrium solubility of famotidine, mg/g Solvent [1, 23]: 45 mg/g | Equilibrium solubility of famotidine, mg/g Total [1, 23]: 43 mg/g | Equilibrium solubility of famotidine, mg/g Solvent ([1]; Propylene Glycol USP, Initial): 17 mg/g | Equilibrium solubility of famotidine, mg/g Total ([1]; Propylene Glycol USP, Initial): 17 mg/g | solubility of famotidine (in words) ([1]; hydrophilic solvents (PEG 400, acidified PEG 400 solution with water, glacial acetic acid)): High solubility | aqueous solubility [2]: poor aqueous solubility | lipophilicity [2]: poor lipophilicity | stability versus pH ([2]; liquid media): low stability outside a pH range of 6 to 7
